Patent publication US9024012B2, “Methods to treat mixtures of glycosides to obtain one or more of these glycosides in more pure form” (Cargill, Incorporated, priority 2010, dated 2015)

Tests used:
[1] = type: physicochemical
Procedure: Without wishing to be bound, it is believed that separation is more favored at higher temperatures at least in part due to factors including conformational changes as well as solubility differences that are a function of temperature. At room temperature, the solubility of Reb B in a 94 weight percent ethanol solution saturated with Reb A is about 0.3 g per 100 g of solvent, and the solubility of Reb D is about 0.01 g per 100 g. At 100° C., concentrations of Reb D as high as 0.2 g/100 g are observed, and concentrations of Reb B as high as 0.5 g/100 g are observed. The solubility of Reb A in 94 wt % ethanol varies to a much smaller extent.

[2] = relative to sucrose; background statement; cited from earlier work

| Compound | concentrations observed in solution [1] [g/100 g] | solubility [1] | sweetness, times the sweetness of sucrose [2] |
| --- | --- | --- | --- |
| C=C1C[C@@]23CC[C@H]4[C@@](C)(CCC[C@@]4(C)C(=O)O[C@@H]4O[C@H](CO)[C@@H](O)[C@H](O)[C@H]4O[C@@H]4O[C@H](CO)[C@@H](O)[C@H](O)[C@H]4O)[C@@H]2CC[C@]1(O[C@@H]1O[C@H](CO)[C@@H](O)[C@H](O[C@@H]2O[C@H](CO)[C@@H](O)[C@H](O)[C@H]2O)[C@H]1O[C@@H]1O[C@H](CO)[C@@H](O)[C@H](O)[C@H]1O)C3 [Reb D, rebaudioside D] | ≤ 0.2 | about 0.01 g per 100 g of solvent |  |
| C=C1C[C@@]23CC[C@H]4[C@@](C)(CCC[C@@]4(C)C(=O)O[C@@H]4O[C@H](CO)[C@@H](O)[C@H](O)[C@H]4O)[C@@H]2CC[C@]1(O[C@@H]1O[C@H](CO)[C@@H](O)[C@H](O[C@@H]2O[C@H](CO)[C@@H](O)[C@H](O)[C@H]2O)[C@H]1O[C@@H]1O[C@H](CO)[C@@H](O)[C@H](O)[C@H]1O)C3 [Rebaudioside A, rebaudioside A] |  |  | 250-450 times |
| rebaudioside B [Reb B] | ≤ 0.5 | about 0.3 g per 100 g of solvent |  |
